Results as given in US12428455B2, “Dominant negative CEBPB and CEBPD proteins and methods of use for decreasing viability of neoplastic cells” (The Trustees of Columbia University in the City of New York, priority 2018, dated 2025).
No end group written: not given here.

Assays:
[1] = tested on: HIEC-6 non-cancer human intestinal epithelial cells; test: Morphology after peptide treatment, HIEC-6; assay type: cell-based; settings: 5 to 6 days, 20 μM or 50; stock without BSA
Procedure: Stock solutions of the peptides were prepared in buffer without added bovine serum albumin (BSA).

T98G cells = test: Combination with chloroquine, cell number, T98G; assay type: cell-based; settings: 5 μM or 10 μM chloroquine and 3 μM or 10 μM peptide, 6 days
Procedure: (§1) Replicate cultures of T98G, MDA-MB 231, and HCT116 cells were treated with 5 μM or 10 μM chloroquine and 3 μM or 10 μM CP-dn-CEBPB and CP-dn-CEBPD peptides, maintained for 6 days, and then assessed for cell number. The bar graphs of FIGS. 29A (T98G, CP-dn-CEBPB), 29C (T98G, CP-dn-CEBPBD, 29E (MDA-MB-231, CP-dn-CEBPBD), 29G (MDA-MB-231, CP-dn-CEBPD), 29I (HCT116, CP-dn-CEBPBB), and 26K (HCT116, CP-dn-CEBPBD) show relative cell numbers for each condition as compared to untreated controls. The line graphs of FIGS. 26B (T98G, CP-dn-CEBPB), 26D (T98G, CP-dn-CEBPBD), 26F (MDA-MB-231, CP-dn-CEBPB), 26H (MDA-MB-231, CP-dn-CEBPD), 26J (HCT116, CP-dn-CEBPB), and 26L (HCT116 CP-dn-CEBPBD) show the response as normalized in each case so that 100 represents the relative number of surviving cells that received the indicated level of chloroquine, but no peptide treatment. The results ranged from near-additive (HCT116 cells, CI=0.92±0.08 for CP-dn-CEBPB and 0.87±0.07 for CP-dn-CEBPD) to apparent synergy (T98G, CI=0.56±0.06 for CP-dn-CEBPB and 0.75±0.03 for CP-dn-CEBPD; MDA-MB-261, CI=0.59±0.11 for CP-dn-CEBPB and 0.47±0.05 for CP-dn-CEBPD).

[2] = tested on: HCT116 colon cancer cells; test: Cell number after peptide treatment, HCT116; assay type: cell-based; settings: 6 days, 0 μM to 50 μM; stock without BSA
Procedure: (§2) Replicate cultures were exposed to the peptides the for 6 days at the indicated concentrations. Stock solutions of the peptides were prepared in buffer without added bovine serum albumin (BSA).
(§3) Replicate cultures of HCT116, MDA-MB 231, MCF7, and T98G cells were exposed to a 50/50 by concentration mixture of CP-DN-CEBPB and CP-DN-CEBPD for 6 days at doses of 0 μM to 50 μM. Stock solutions of the peptides were prepared in buffer without added bovine serum albumin (BSA).
(§4) Replicate cultures of T98G, HCT116, MDA-MB 231, and MCF7 cells were exposed to CP-DN-CEBPB, CP-DN-CEBPD, or a CP-DN-CEBPD in which heptad repeat leucine residues were mutated to glycine residues for 6 days at doses of 0 μM to 50 μM. Stock solutions of the peptides were prepared in buffer without added bovine serum albumin (BSA).

HCT116 cells = test: Combination with chloroquine, cell number, HCT116; assay type: cell-based; settings: 5 μM or 10 μM chloroquine and 3 μM or 10 μM peptide, 6 days
Procedure: as §1

A375 cells = test: A375 subcutaneous tumors, 10 or 20 mg/kg study; assay type: in vivo, NCR nude mice; settings: 10 or 20 mg/kg intraperitoneally; for tumor growth (calculated tumor volumes): to day 24
Procedure: A375 cells were subcutaneously implanted in the flanks of NCR nude mice. After tumors had formed, the animals were treated intraperitoneally with 10 or 20 mg/kg of CP-dn-CEBPB, CP-dn-CEBPD or vehicle as indicated in the schema shown in FIG. 37A. Animal weight was monitored (FIG. 37B). Tumor sizes were measured and volumes calculated on each day of injection. […] FIG. 37D compares calculated individual and mean tumor volumes for vehicle, CP-dn-CEBPB and CP-dn-CEBPD treated animals on day 24.

LN229 glioblastoma cells = test: Cell number after peptide treatment, LN229; assay type: cell-based, human; settings: for growth and survival of LN229 cells: 6 days, 0 μM to 50 μM, stock without BSA
Procedure: In some implementations, the mixture of arg/glu may be added at a molarity of, or of about 5 mM, 10 mM, 15 mM, 20 mM, 25 mM, or 30 mM.
as §2

MDA-MB 231 cells [3] = test: Colony forming activity on culture plates, MDA-MB 231; assay type: cell-based; settings: 6 days; doses 0.05, 0.5 and 5 μM
Procedure: T98G (FIG. 21A), MDA-MB 231 (FIG. 21B), and HCT116 (FIG. 21C) cells were exposed to CP-DN-CEBPB and CP-DN-CEBPD for 6 days at doses of 0.05 μM 0.5 μM, and 5 μM while growing in soft agar. Growth was inhibited by does as low as 0.5 μM. T98G (FIG. 21D), MDA-MB 231 (FIG. 21E), and HCT116 (FIG. 21F) cells were exposed to CP-DN-CEBPB and CP-DN-CEBPD for 6 days at doses of 0.05 μM 0.5 μM, and 5 μM while growing on culture plates. Growth was inhibited by does as low as 0.5 μM.

MCF7 breast cancer cells = test: Cell number after peptide treatment, MCF7; assay type: cell-based; settings: 6 days, 0 μM to 50 μM; stock without BSA
Procedure: as §2, §3, §4

A375 melanoma cells = test: Cell number after peptide treatment, A375; assay type: cell-based; settings: 6 days, 0 μM to 50 μM; stock without BSA
Procedure: as §2

MDA-MB-231 cells = test: Apoptotic nuclei, propidium iodide flow cytometry, MDA-MB-231; assay type: cell-based; settings: 20 μM, 3 days, vs untreated cells
Procedure: MDA-MB-231, MCF7, HCT116 and T98G cancer cell lines were treated for 3 days with 20 μM CP-dn-CEBPB and CP-dn-CEBPD peptides from stock solutions prepared without additives. Cultures were stained with propidium iodide and assessed for proportion of cells with apoptotic nuclei by flow cytometry.

MDA-MB 231 cells [4] = test: Scratch migration assay, MDA-MB 231; assay type: cell-based; settings: 20 hours, 20 μM or 40 μM
Procedure: Monolayers of MDA-MB 231 or T98G cells were subjected to formation of a scratch at 0 time and cultured for 20 hours in 20 μM or 40 μM CP-DN-CEBPB and CP-DN-CEBPD. Multiple images taken at 0 time and after 20 hours were analyzed for gap width of the scratches into which cells migrated or not. Example images for T98G are found in FIG. 22A, with compiled data for the T98G samples in FIG. 22B. Example images for MDA-MB 231 are found in FIG. 22C, with compiled data for the MDA-MB 231 samples in FIG. 22D.

RQIKIWFQNRRMKWKKLETQHKVLELTAENERLQKKVEQLSRELSTLRNLFKQL [CP-DN-CEBPB]
morphology of HIEC-6 cells [1]: did not affect the morphology | CI with chloroquine (T98G cells): 0.56±0.06 | growth and survival / numbers of HCT116 cells [2]: decrease in growth and survival | CI with chloroquine (HCT116 cells): 0.92±0.08 | side effects (animal weight monitored) (A375 cells): no apparent side effects | tumor growth (calculated tumor volumes) (A375 cells): suppressed tumor growth | growth and survival of LN229 cells (LN229 glioblastoma cells): decrease in growth and survival | effect of adding arg/glu mixture at 2 mM (LN229 glioblastoma cells; cultured LN229 cells): only minimal effect | lowest dose at which growth was inhibited, culture plates (MDA-MB 231 cells [3]): 0.5 µM | growth and survival / numbers of MCF7 cells (MCF7 breast cancer cells): decrease in growth and survival | growth and survival of A375 cells (A375 melanoma cells): decrease in growth and survival | proportion of cells with apoptotic nuclei (MDA-MB-231 cells): increased apoptotic cell death | cell migration into scratch (gap width) (MDA-MB 231 cells [4]): able to inhibit migration

RQIKIWFQNRRMKWKKLVELSAENEKLHQRVEQLTRDLAGLRQFFK [CP-DN-CEBPD]
morphology of HIEC-6 cells [1]: did not affect the morphology | CI with chloroquine (T98G cells): 0.75±0.03 | growth and survival / numbers of HCT116 cells [2]: decrease in growth and survival | CI with chloroquine (HCT116 cells): 0.87±0.07 | side effects (animal weight monitored) (A375 cells): no apparent side effects | tumor growth (calculated tumor volumes) (A375 cells): suppressed tumor growth | growth and survival of LN229 cells (LN229 glioblastoma cells): decrease in growth and survival | effect of adding arg/glu mixture at 2 mM (LN229 glioblastoma cells; cultured LN229 cells): only minimal effect | shift of IC50 by 20 mM arginine and glutamate (LN229 glioblastoma cells; cultured LN229 cells): 10 fold | lowest dose at which growth was inhibited, culture plates (MDA-MB 231 cells [3]): 0.5 µM | growth and survival / numbers of MCF7 cells (MCF7 breast cancer cells): decrease in growth and survival | growth and survival of A375 cells (A375 melanoma cells): decrease in growth and survival | proportion of cells with apoptotic nuclei (MDA-MB-231 cells): increased apoptotic cell death | cell migration into scratch (gap width) (MDA-MB 231 cells [4]): able to inhibit migration
